In the NIST ThermoML archive (doi:10.1021/je500513b):
± gives the expanded uncertainty stated by the source.

Assay: mn = molality of the nth substance listed, in mol/kg
Conditions: for surface tension liquid-gas: Pendant drop shape; for electrical conductivity: 100 kPa, Liquid, Mettler Toledo inLab 710

CCCCCCCCCCCC[N+](C)(C)CCCC[N+](C)(C)CCCCCCCCCCCC.[Br-].[Br-] + O
Conditions | electrical conductivity [S/m] | surface tension liquid-gas [mN/m]
298.15 K, m1 = 0.0001 | – | 60.26 ± 1.8
298.15 K, m1 = 0.0002 | – | 54.58 ± 0.98
298.15 K, m1 = 0.0004 | – | 47.36 ± 0.75
298.15 K, m1 = 0.0006 | – | 42.42 ± 0.62
298.15 K, m1 = 0.0007 | – | 40.35 ± 0.53
298.15 K, m1 = 0.0008 | – | 38.82 ± 0.47
298.15 K, m1 = 0.00085 | – | 38.23 ± 0.61
298.15 K, m1 = 0.0009 | – | 36.43 ± 0.46
298.15 K, m1 = 0.001 | – | 35.92 ± 0.37
298.15 K, m1 = 0.0011 | – | 35.45 ± 0.36
298.15 K, m1 = 0.0012 | – | 35.19 ± 0.35
298.15 K, m1 = 0.0015 | – | 35.13 ± 0.35
298.15 K, m1 = 0.002 | – | 35.1 ± 0.35
298.15 K, m1 = 0.56 | 1.13 ± 0.01 | –
298.15 K, m1 = 0.59 | 1.2 ± 0.01 | –
298.15 K, m1 = 0.63 | 1.28 ± 0.01 | –
298.15 K, m1 = 0.67 | 1.36 ± 0.01 | –
298.15 K, m1 = 0.7 | 1.42 ± 0.02 | –
298.15 K, m1 = 0.74 | 1.5 ± 0.02 | –
298.15 K, m1 = 0.78 | 1.57 ± 0.02 | –
298.15 K, m1 = 0.83 | 1.66 ± 0.02 | –
298.15 K, m1 = 0.87 | 1.73 ± 0.02 | –
298.15 K, m1 = 0.91 | 1.79 ± 0.02 | –
298.15 K, m1 = 0.95 | 1.86 ± 0.02 | –
298.15 K, m1 = 1 | 1.93 ± 0.02 | –
298.15 K, m1 = 1.05 | 2 ± 0.02 | –
298.15 K, m1 = 1.11 | 2.06 ± 0.02 | –
298.15 K, m1 = 1.18 | 2.13 ± 0.02 | –
298.15 K, m1 = 1.25 | 2.2 ± 0.02 | –
298.15 K, m1 = 1.33 | 2.25 ± 0.02 | –
298.15 K, m1 = 1.43 | 2.32 ± 0.02 | –
298.15 K, m1 = 1.54 | 2.39 ± 0.02 | –
298.15 K, m1 = 1.67 | 2.46 ± 0.03 | –
298.15 K, m1 = 1.82 | 2.53 ± 0.03 | –
298.15 K, m1 = 2 | 2.63 ± 0.03 | –
303.15 K, m1 = 0.57 | 1.32 ± 0.01 | –
303.15 K, m1 = 0.63 | 1.43 ± 0.02 | –
303.15 K, m1 = 0.67 | 1.53 ± 0.02 | –
303.15 K, m1 = 0.7 | 1.61 ± 0.02 | –
303.15 K, m1 = 0.74 | 1.69 ± 0.02 | –
303.15 K, m1 = 0.78 | 1.78 ± 0.02 | –
303.15 K, m1 = 0.83 | 1.86 ± 0.02 | –
303.15 K, m1 = 0.87 | 1.93 ± 0.02 | –
303.15 K, m1 = 0.91 | 2.01 ± 0.02 | –
303.15 K, m1 = 0.95 | 2.1 ± 0.02 | –
303.15 K, m1 = 1 | 2.18 ± 0.02 | –
303.15 K, m1 = 1.05 | 2.25 ± 0.02 | –
303.15 K, m1 = 1.11 | 2.34 ± 0.02 | –
303.15 K, m1 = 1.18 | 2.41 ± 0.02 | –
303.15 K, m1 = 1.25 | 2.47 ± 0.03 | –
303.15 K, m1 = 1.33 | 2.56 ± 0.03 | –
303.15 K, m1 = 1.43 | 2.63 ± 0.03 | –
303.15 K, m1 = 1.54 | 2.72 ± 0.03 | –
303.15 K, m1 = 1.67 | 2.8 ± 0.03 | –
303.15 K, m1 = 1.74 | 2.84 ± 0.03 | –
303.15 K, m1 = 2 | 2.99 ± 0.03 | –
308.15 K, m1 = 0.56 | 1.42 ± 0.02 | –
308.15 K, m1 = 0.59 | 1.5 ± 0.02 | –
308.15 K, m1 = 0.63 | 1.59 ± 0.02 | –
308.15 K, m1 = 0.67 | 1.69 ± 0.02 | –
308.15 K, m1 = 0.7 | 1.76 ± 0.02 | –
308.15 K, m1 = 0.74 | 1.85 ± 0.02 | –
308.15 K, m1 = 0.78 | 1.95 ± 0.02 | –
308.15 K, m1 = 0.83 | 2.06 ± 0.02 | –
308.15 K, m1 = 0.87 | 2.14 ± 0.02 | –
308.15 K, m1 = 0.91 | 2.22 ± 0.02 | –
308.15 K, m1 = 0.95 | 2.32 ± 0.02 | –
308.15 K, m1 = 1 | 2.41 ± 0.02 | –
308.15 K, m1 = 1.05 | 2.51 ± 0.03 | –
308.15 K, m1 = 1.11 | 2.62 ± 0.03 | –
308.15 K, m1 = 1.18 | 2.71 ± 0.03 | –
308.15 K, m1 = 1.25 | 2.8 ± 0.03 | –
308.15 K, m1 = 1.33 | 2.9 ± 0.03 | –
308.15 K, m1 = 1.43 | 2.98 ± 0.03 | –
308.15 K, m1 = 1.54 | 3.08 ± 0.03 | –
308.15 K, m1 = 1.67 | 3.16 ± 0.03 | –
308.15 K, m1 = 1.82 | 3.27 ± 0.03 | –
308.15 K, m1 = 2 | 3.39 ± 0.03 | –
313.15 K, m1 = 0.62 | 1.66 ± 0.02 | –
313.15 K, m1 = 0.66 | 1.78 ± 0.02 | –
313.15 K, m1 = 0.7 | 1.91 ± 0.02 | –
313.15 K, m1 = 0.74 | 2 ± 0.02 | –
313.15 K, m1 = 0.78 | 2.12 ± 0.02 | –
313.15 K, m1 = 0.83 | 2.24 ± 0.02 | –
313.15 K, m1 = 0.89 | 2.38 ± 0.02 | –
313.15 K, m1 = 0.95 | 2.54 ± 0.03 | –
313.15 K, m1 = 1 | 2.64 ± 0.03 | –
313.15 K, m1 = 1.05 | 2.76 ± 0.03 | –
313.15 K, m1 = 1.11 | 2.87 ± 0.03 | –
313.15 K, m1 = 1.18 | 3.01 ± 0.03 | –
313.15 K, m1 = 1.25 | 3.13 ± 0.03 | –
313.15 K, m1 = 1.33 | 3.24 ± 0.03 | –
313.15 K, m1 = 1.43 | 3.34 ± 0.03 | –
313.15 K, m1 = 1.54 | 3.46 ± 0.04 | –
313.15 K, m1 = 1.67 | 3.58 ± 0.04 | –
313.15 K, m1 = 1.74 | 3.64 ± 0.04 | –
313.15 K, m1 = 1.82 | 3.7 ± 0.04 | –
313.15 K, m1 = 1.9 | 3.77 ± 0.04 | –
313.15 K, m1 = 2 | 3.84 ± 0.04 | –
318.15 K, m1 = 0.61 | 1.79 ± 0.02 | –
318.15 K, m1 = 0.65 | 1.91 ± 0.02 | –
318.15 K, m1 = 0.69 | 2.05 ± 0.02 | –
318.15 K, m1 = 0.74 | 2.19 ± 0.02 | –
318.15 K, m1 = 0.78 | 2.33 ± 0.02 | –
318.15 K, m1 = 0.83 | 2.45 ± 0.03 | –
318.15 K, m1 = 0.89 | 2.61 ± 0.03 | –
318.15 K, m1 = 0.95 | 2.78 ± 0.03 | –
318.15 K, m1 = 1 | 2.9 ± 0.03 | –
318.15 K, m1 = 1.05 | 3.04 ± 0.03 | –
318.15 K, m1 = 1.11 | 3.18 ± 0.03 | –
318.15 K, m1 = 1.18 | 3.33 ± 0.03 | –
318.15 K, m1 = 1.25 | 3.47 ± 0.04 | –
318.15 K, m1 = 1.33 | 3.61 ± 0.04 | –
318.15 K, m1 = 1.43 | 3.76 ± 0.04 | –
318.15 K, m1 = 1.54 | 3.91 ± 0.04 | –
318.15 K, m1 = 1.67 | 4.04 ± 0.04 | –
318.15 K, m1 = 1.74 | 4.11 ± 0.04 | –
318.15 K, m1 = 1.82 | 4.19 ± 0.04 | –
318.15 K, m1 = 1.9 | 4.26 ± 0.04 | –
318.15 K, m1 = 2 | 4.32 ± 0.04 | –
323.15 K, m1 = 0.57 | 1.86 ± 0.02 | –
323.15 K, m1 = 0.61 | 1.97 ± 0.02 | –
323.15 K, m1 = 0.65 | 2.09 ± 0.02 | –
323.15 K, m1 = 0.69 | 2.24 ± 0.02 | –
323.15 K, m1 = 0.74 | 2.4 ± 0.02 | –
323.15 K, m1 = 0.78 | 2.55 ± 0.03 | –
323.15 K, m1 = 0.83 | 2.72 ± 0.03 | –
323.15 K, m1 = 0.89 | 2.87 ± 0.03 | –
323.15 K, m1 = 0.95 | 3.03 ± 0.03 | –
323.15 K, m1 = 1 | 3.16 ± 0.03 | –
323.15 K, m1 = 1.05 | 3.31 ± 0.03 | –
323.15 K, m1 = 1.11 | 3.47 ± 0.04 | –
323.15 K, m1 = 1.18 | 3.66 ± 0.04 | –
323.15 K, m1 = 1.25 | 3.84 ± 0.04 | –
323.15 K, m1 = 1.33 | 4.03 ± 0.04 | –
323.15 K, m1 = 1.43 | 4.21 ± 0.04 | –
323.15 K, m1 = 1.54 | 4.38 ± 0.04 | –
323.15 K, m1 = 1.6 | 4.48 ± 0.05 | –
323.15 K, m1 = 1.67 | 4.57 ± 0.05 | –
323.15 K, m1 = 1.74 | 4.65 ± 0.05 | –
323.15 K, m1 = 1.82 | 4.73 ± 0.05 | –
323.15 K, m1 = 1.9 | 4.81 ± 0.05 | –
323.15 K, m1 = 2 | 4.89 ± 0.05 | –

O [water] + CCCCCCCCCCCCCC[N+](C)(C)CCC[N+](C)(C)CCCCCCCCCCCCCC.[Br-].[Br-]
Conditions | surface tension liquid-gas [mN/m]
298.15 K, m2 = 0 | 71.98 ± 18
